Changes are numbered by the printed parent chain. “Also recorded” adds a separate entry of the source.
Legend:
OCT1*12 (Ser29Leu) = molecular target: T1, OCT1*12 (Ser29Leu) (Homo sapiens, UniProt O15245, L160F/S29L); assay: Ranitidine uptake in HEK293 cells overexpressing OCT1*12; assay type: in vitro ADME; settings: 1 μM and 10 μM ranitidine, 2 min
T1 construct: expressed in transfected cells; host or cells: HEK293 T-REx (Flp-In)
T1 sequence (O15245 1-554 S29L/L160F): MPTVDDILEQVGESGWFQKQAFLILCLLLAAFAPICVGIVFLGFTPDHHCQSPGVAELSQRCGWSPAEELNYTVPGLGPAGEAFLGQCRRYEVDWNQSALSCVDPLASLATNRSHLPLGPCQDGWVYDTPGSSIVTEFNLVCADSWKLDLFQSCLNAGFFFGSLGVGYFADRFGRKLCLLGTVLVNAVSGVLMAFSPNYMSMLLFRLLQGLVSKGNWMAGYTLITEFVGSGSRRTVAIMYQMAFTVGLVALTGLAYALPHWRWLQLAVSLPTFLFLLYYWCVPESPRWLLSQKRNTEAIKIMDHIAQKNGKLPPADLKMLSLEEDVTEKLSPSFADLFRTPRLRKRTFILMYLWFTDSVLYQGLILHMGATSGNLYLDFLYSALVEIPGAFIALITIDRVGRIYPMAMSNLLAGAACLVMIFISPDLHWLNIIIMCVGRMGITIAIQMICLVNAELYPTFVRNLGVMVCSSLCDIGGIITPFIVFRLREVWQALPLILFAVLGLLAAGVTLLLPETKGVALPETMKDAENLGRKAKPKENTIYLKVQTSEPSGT
From the text: (§1) HEK293 or CHO cells overexpressing the human OCT1 alleles *1A (characterized by the amino acid substitution Met408Val), *1B, *1C (Phe160Leu), *1D (Pro341Leu/Met408Val), *2 (Met420del), *3 (Arg61Cys), *4 (Gly401Ser), *5 (Gly465Arg/Met420del), *6 (Cys88Arg/Met420del), *7 (Ser14Phe), *8A (Arg488Met), *8B (Arg488Met/Met408Val), *9 (Pro117Leu), *10 (Ser189Leu), *11 (Ile449Thr), *12 (Ser29Leu), or *13 (Thr245Met), the human OCT2 reference and variant alleles (Ala270Ser), human OCT3, and the control cells (transfected with the empty pcDNA5 vector) were generated by targeted chromosomal integration using the Flp-In™ System (Life Technologies, Darmstadt, Germany).
(§2) Six hundred thousand HEK293 or CHO cells were plated per well in 12-well plates (pre-coated with poly-D-lysine) and were grown for 48 hours to reach confluence. Cells were kept at 37°C and 5% CO2 in DMEM (HEK293) or RPMI (CHO), supplemented with 10% FCS, 100 U/ml penicillin, and 100 μg/ml streptomycin. Uptake experiments were performed at pH 7.4 using HBSS supplemented with 10 mM HEPES buffer (herein referred to as HBSS+). […]
(§3) For all transport measurements, the intracellular amount of substrate was normalized to the total amount of protein of the sample as measured using the bicinchoninic acid assay [49].
(§4) For quantification of intracellular substrates, the cell debris were removed by centrifugation at 17,000 x g for 10 min. […]

[1] = molecular target: T2, OCT1*5 (Gly465Arg/Met420del) (Homo sapiens, UniProt O15245, DEL420-420/G465R/L160F); assay: Ranitidine uptake in HEK293 cells overexpressing OCT1*5; assay type: in vitro ADME; settings: 1 μM and 10 μM ranitidine, 2 min
T2 construct: expressed in transfected cells; host or cells: HEK293 T-REx (Flp-In)
T2 sequence (O15245 with tags, fused parts or gaps L160F/DEL420-420/G465R): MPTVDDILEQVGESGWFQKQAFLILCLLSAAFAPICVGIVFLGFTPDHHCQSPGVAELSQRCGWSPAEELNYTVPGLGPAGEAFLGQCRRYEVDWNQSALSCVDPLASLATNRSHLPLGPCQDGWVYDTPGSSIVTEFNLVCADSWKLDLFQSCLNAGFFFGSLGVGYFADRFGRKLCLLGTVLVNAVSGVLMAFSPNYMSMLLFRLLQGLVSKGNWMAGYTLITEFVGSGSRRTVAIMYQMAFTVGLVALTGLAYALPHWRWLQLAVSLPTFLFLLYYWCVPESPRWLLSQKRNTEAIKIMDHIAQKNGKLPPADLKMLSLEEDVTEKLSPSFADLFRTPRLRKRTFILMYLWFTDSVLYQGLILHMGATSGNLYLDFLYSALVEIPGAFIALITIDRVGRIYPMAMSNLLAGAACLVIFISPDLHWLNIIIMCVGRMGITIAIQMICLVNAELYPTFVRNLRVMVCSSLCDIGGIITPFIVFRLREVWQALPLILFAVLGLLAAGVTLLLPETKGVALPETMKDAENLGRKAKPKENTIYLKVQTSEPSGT
From the text: as §1, §2, §3, §4

OCT1*1C (Phe160Leu) = molecular target: T3, OCT1*1C (Phe160Leu) (Homo sapiens, UniProt O15245); settings: 1 and 10 μM ranitidine, 2 min
T3 sequence (O15245 1-554): T1 sequence (O15245 1-554 S29L/L160F) with L29S, F160L
From the text: as §1, §2, §3, §4

OCT2 = molecular target: T4, OCT2 (Homo sapiens, UniProt O15244, S270A); assay: Ranitidine uptake in HEK293 cells overexpressing OCT2 reference (Ala270); assay type: in vitro ADME; settings: 1 μM ranitidine, 2 min
T4 construct: expressed in transfected cells; host or cells: HEK293 T-REx (Flp-In)
T4 sequence (O15244 1-555 S270A): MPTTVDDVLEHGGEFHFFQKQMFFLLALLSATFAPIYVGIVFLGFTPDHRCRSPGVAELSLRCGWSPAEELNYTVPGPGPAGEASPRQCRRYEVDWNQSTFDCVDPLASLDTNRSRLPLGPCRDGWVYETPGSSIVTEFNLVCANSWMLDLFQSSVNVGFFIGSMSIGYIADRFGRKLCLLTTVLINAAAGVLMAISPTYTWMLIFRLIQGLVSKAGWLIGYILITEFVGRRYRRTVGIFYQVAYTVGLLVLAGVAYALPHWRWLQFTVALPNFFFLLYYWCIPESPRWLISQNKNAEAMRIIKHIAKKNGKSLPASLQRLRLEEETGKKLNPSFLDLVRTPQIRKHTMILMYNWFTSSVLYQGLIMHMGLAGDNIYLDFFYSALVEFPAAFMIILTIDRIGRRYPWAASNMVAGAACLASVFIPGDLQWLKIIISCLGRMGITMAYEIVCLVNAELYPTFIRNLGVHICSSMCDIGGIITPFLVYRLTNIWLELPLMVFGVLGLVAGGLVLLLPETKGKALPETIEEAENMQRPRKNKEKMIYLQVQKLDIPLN
From the text: as §1, §2, §3, §4

[2] = design: method as in ref 56 = [56]; 56 Pharma ® A. Fachinformation Ranitidin 150–1 A Pharma ® , Ranitidin 300–1 A Pharma ® : Rote Liste ®; 2013 [updated June 2013; cited 2016 21.10.2016].; settings: cited from earlier work

Compound: CNC(=C[N+](=O)[O-])NCCSCc1ccc(CN(C)C)o1 [ranitidine, Ranitidine]
- ranitidine transport activity (OCT1*12 (Ser29Leu)): completely lacked ranitidine uptake; also recorded: complete lack of ranitidine transport activity
- ranitidine transport activity [1]: completely lacked ranitidine uptake; also recorded: complete lack of ranitidine transport activity
- uptake of ranitidine compared to the reference allele (OCT1*1C (Phe160Leu)): no significant difference
- ranitidine uptake, OCT2-overexpressing compared to control cells (OCT2): 3.3 fold
- dosages exceeding the single dose not associated with a higher prevalence of adverse reactions [2]: more than 20 fold

Reference: paper PMC5728534 (PLoS ONE, 2017)
